Reference: publication PMC5564600 (Oncotarget, 2017)

What was measured:
Assay in all cases: biochemical
Type in all cases: binding
[1] = biological target: T1, panel of 442 kinases (Homo sapiens, UniProt P07948); details: kinase LYN; for remaining activity at 1 µM: read-out: % of control at 1 µM
T1 construct: purchased Ambit Biosciences (scanMAXX KINOMEscan)

[2] = biological target: T2, panel of 442 kinases (Homo sapiens, UniProt Q07912); details: kinase TNK2; for remaining activity at 1 µM: read-out: TNK2 (% of control at 1 µM)
T2 construct: purchased Ambit Biosciences (scanMAXX KINOMEscan)

[3] = biological target: T3, panel of 442 kinases (Homo sapiens, UniProt O14920); details: kinase IKK-beta; for remaining activity at 1 µM: read-out: % of control at 1 µM
T3 construct: purchased Ambit Biosciences (scanMAXX KINOMEscan)
T3 sequence (O14920 1-756): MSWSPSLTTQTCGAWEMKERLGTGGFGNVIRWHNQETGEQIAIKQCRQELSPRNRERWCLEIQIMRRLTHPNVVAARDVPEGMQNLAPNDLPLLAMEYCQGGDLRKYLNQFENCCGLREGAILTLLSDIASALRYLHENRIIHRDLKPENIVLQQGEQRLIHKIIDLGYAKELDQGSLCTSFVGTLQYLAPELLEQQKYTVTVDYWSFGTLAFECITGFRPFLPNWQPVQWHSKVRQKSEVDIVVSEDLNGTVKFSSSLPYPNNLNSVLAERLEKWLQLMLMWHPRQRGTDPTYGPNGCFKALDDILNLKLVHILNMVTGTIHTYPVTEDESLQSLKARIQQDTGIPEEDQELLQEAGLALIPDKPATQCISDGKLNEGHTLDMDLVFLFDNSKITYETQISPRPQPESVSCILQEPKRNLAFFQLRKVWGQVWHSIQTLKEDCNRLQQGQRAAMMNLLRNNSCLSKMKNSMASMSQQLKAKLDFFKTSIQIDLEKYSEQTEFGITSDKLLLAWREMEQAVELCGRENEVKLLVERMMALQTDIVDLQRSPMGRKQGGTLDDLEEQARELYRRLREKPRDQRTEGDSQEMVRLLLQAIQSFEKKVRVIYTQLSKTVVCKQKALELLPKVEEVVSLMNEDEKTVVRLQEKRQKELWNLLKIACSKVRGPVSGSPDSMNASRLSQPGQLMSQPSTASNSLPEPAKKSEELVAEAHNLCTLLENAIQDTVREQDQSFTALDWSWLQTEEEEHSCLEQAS

[4] = biological target: T4, panel of 442 kinases (Homo sapiens, UniProt Q7L7X3); details: kinase TAOK1; for remaining activity at 1 µM: read-out: TAOK1 (% of control at 1 µM)
T4 construct: purchased Ambit Biosciences (scanMAXX KINOMEscan)
T4 sequence (Q7L7X3 1-1001): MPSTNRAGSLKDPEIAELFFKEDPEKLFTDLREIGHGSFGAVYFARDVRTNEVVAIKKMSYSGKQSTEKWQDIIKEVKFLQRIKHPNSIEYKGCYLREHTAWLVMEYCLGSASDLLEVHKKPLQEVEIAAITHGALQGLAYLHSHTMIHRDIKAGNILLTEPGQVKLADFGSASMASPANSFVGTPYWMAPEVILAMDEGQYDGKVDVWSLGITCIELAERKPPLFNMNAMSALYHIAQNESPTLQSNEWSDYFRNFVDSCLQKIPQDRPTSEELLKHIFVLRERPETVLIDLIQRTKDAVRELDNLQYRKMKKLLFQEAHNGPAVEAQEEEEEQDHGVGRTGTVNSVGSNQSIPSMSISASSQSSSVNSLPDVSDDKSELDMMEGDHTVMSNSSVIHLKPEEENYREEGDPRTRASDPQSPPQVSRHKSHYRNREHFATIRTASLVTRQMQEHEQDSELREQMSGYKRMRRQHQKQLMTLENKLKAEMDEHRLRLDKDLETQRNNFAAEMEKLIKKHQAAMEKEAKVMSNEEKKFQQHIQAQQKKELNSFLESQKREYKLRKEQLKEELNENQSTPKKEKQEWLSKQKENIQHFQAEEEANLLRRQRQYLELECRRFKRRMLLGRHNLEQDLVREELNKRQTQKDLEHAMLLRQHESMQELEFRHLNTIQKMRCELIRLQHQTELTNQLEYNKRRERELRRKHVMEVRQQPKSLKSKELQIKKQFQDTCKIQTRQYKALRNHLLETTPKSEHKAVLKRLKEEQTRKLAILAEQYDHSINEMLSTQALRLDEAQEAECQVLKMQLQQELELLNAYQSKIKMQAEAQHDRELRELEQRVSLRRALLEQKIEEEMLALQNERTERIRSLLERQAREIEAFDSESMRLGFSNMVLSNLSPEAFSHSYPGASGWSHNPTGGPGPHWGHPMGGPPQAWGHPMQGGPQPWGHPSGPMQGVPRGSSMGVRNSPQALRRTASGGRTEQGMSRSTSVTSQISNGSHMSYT

[5] = biological target: T5, panel of 442 kinases (Homo sapiens, UniProt P57058); details: kinase HUNK; for remaining activity at 1 µM: read-out: % of control at 1 µM
T5 construct: purchased Ambit Biosciences (scanMAXX KINOMEscan)
T5 sequence (P57058 1-714): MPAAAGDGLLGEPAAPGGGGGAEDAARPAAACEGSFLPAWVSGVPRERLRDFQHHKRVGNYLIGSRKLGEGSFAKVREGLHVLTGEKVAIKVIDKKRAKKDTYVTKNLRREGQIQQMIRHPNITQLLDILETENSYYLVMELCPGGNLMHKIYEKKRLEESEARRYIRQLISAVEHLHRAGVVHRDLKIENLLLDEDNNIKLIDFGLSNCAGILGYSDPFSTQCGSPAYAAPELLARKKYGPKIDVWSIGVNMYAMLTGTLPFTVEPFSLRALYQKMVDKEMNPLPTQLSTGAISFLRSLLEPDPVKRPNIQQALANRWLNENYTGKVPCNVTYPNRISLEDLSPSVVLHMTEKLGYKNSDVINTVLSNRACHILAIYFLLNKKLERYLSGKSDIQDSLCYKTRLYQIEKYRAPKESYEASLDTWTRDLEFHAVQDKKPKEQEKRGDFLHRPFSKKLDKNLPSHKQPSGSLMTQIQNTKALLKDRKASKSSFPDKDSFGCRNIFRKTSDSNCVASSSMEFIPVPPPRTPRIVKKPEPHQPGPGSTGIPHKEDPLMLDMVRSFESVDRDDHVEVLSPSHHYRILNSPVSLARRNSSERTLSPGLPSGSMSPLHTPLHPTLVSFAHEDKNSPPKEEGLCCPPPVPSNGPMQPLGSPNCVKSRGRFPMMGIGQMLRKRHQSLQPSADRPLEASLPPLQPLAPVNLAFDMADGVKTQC

[6] = 10 µM, read-out: % of control at 10 µM

T2 sequence (Q07912 whole entry): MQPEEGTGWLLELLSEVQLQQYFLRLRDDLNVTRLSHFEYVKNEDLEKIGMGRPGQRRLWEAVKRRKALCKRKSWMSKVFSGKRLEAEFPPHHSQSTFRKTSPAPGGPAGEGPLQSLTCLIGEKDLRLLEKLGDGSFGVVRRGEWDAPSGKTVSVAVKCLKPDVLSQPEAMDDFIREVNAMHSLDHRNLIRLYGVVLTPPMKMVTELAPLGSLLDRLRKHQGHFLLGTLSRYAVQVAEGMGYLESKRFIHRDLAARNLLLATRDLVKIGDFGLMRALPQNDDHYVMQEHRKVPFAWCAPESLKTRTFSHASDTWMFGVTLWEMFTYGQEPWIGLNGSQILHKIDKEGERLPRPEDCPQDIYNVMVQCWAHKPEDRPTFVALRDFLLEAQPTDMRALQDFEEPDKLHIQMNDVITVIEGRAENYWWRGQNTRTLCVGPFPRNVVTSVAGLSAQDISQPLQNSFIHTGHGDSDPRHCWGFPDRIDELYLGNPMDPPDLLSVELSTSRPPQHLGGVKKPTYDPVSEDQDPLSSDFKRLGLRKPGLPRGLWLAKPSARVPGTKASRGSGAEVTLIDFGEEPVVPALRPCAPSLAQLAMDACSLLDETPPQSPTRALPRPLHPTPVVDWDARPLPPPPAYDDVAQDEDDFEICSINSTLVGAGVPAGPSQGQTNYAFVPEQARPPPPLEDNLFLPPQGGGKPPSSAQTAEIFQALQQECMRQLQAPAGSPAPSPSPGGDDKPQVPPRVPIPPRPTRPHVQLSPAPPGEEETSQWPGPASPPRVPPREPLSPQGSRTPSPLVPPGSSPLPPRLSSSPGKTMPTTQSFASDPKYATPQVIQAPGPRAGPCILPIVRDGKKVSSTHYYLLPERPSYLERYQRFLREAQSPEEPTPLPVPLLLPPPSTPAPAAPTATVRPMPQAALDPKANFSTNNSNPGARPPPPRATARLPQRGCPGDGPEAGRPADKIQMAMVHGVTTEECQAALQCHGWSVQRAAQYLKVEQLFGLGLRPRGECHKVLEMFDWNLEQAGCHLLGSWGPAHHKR
T1 sequence (P07948 whole entry): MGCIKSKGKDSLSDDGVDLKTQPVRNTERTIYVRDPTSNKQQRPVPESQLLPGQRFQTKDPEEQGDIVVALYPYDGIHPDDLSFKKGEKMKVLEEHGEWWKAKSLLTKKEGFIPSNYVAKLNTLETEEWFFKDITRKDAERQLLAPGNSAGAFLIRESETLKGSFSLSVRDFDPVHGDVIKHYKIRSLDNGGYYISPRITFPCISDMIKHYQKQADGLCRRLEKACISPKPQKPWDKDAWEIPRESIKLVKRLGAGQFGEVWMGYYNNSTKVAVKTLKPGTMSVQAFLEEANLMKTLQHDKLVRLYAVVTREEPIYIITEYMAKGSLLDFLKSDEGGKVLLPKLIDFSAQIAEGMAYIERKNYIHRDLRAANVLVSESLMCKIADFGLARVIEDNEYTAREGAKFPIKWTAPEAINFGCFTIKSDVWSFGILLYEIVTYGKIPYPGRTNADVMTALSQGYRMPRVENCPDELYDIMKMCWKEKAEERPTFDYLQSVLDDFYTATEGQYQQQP

SMILES | remaining activity at 1 µM [1] | remaining activity at 10 µM [1, 6] | remaining activity at 1 µM [2] | remaining activity at 10 µM ([2]; 10 µM, read-out: TNK2 (% of control at 10 µM)) | remaining activity at 1 µM [3] | remaining activity at 10 µM [3, 6] | remaining activity at 1 µM [4] | remaining activity at 10 µM ([4]; 10 µM, read-out: TAOK1 (% of control at 10 µM)) | remaining activity at 1 µM [5] | remaining activity at 10 µM [5, 6]
Nc1cc(C(F)(F)F)c(-c2cc(N3CCOCC3)nc(N3CCOCC3)n2)cn1 [Buparlisib] | 84% | 100% | 100% | 100% | 92% | 100% | 86% | 82% | 100% | 100%
Cn1c(=O)n(-c2ccc(C(C)(C)C#N)cc2)c2c3cc(-c4cnc5ccccc5c4)ccc3ncc21 [Dactolisib, 2-methyl-2-[4-(3-methyl-2-oxo-8-quinolin-3-yl-2,3-dihydroimidazo[4,5-c]quinolin-1-yl)-phenyl] propionitrile] | 87% |  | 98% |  | 73% |  | 70% |  | 93% | 
COc1ncc(-c2ccc3nccc(-c4ccnnc4)c3c2)cc1NS(=O)(=O)c1ccc(F)cc1F [Omipalisib] | 100% |  | 100% |  | 100% |  | 100% |  | 74% | 
FC(F)c1nc2ccccc2n1-c1nc(N2CCOCC2)nc(N2CCOCC2)n1 [ZSTK474, 2-(difluoromethyl)-1-[4,6-di(4-morpholinyl)-1,3,5-triazin-2-yl]-1H-benzimidazole] | 100% |  | 100% |  | 88% |  | 74% |  | 100% | 
